Where a chain is given by its changes, count along the chain named. Values joined by “and” are separate entries in the source; they are usually repeats but may differ in a detail not shown here. Equal values may be shown once. Read-outs that look alike come from different tables or passages of the source.
Columns and labels:
Format in all cases: biochemical
[1] = biological target: T1, human SHP2-FL E76K (Homo sapiens, UniProt Q06124, E76K); assay: SHP2 allosteric inhibition assay (DiFMUP), E76K; conditions: for IC50: SHP2 E76K
T1 sequence (Q06124 1-593 E76K): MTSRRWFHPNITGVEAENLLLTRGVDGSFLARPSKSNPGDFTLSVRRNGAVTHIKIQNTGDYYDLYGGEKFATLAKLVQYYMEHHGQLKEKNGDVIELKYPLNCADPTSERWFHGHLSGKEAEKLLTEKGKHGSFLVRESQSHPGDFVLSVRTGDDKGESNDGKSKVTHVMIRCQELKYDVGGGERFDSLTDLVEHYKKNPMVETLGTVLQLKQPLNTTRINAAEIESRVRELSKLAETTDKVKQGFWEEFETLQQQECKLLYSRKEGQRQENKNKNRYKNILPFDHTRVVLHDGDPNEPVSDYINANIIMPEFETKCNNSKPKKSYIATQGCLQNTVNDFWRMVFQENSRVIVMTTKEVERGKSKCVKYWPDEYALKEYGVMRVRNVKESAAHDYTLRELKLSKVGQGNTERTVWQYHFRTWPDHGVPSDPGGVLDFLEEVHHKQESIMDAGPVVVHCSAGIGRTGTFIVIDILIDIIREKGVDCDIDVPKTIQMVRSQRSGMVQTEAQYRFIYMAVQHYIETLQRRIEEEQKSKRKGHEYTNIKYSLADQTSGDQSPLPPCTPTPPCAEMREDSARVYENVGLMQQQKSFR
Text: (§1) Full-length SHP2 is allosterically activated through binding of bis-tyrosyl-phorphorylated peptides to its Src Homology 2 (SH2) domains. The latter activation step leads to the release of the auto-inhibitory interface of SHP2, which in turn renders the SHP2 protein tyrosine phosphatase (PTP) active and available for substrate recognition and reaction catalysis. The catalytic activity of SHP2 was monitored using the surrogate substrate DiFMUP in a prompt fluorescence assay format.
(§2) Diluted inhibitor (5 μL) was mixed with activated enzyme (25 μl) and incubated for 30 minutes at room temperature. […] 50 μl stop solution (0.1 mM sodium pervanadate) was added to each well, the plate was shaken briefly to mix, and read in endpoint mode on a SpectraMax M5 plate reader (Molecular Devices) using excitation and emission wavelengths of 340 nm and 450 nm. Data was imported into GraphPad Prism. Plots of fluorescence intensity vs. log Molar [compound] were created and modeled with a 3-parameter sigmoidal concentration response equation in order to estimate IC50.
(§3) Reactions were then allowed to proceed for 30 minutes and stopped by the addition of a phosphatase inhibitor, sodium pervanadate. De-phosphorylation of DiFMUP results in production of a fluorescent product. Product fluorescence was determined and plotted as a function of compound concentration in order to determine the IC50 for each compound on each mutant using a four parameter sigmoidal dose response function in Prism (GraphPad).
(§4) NsCs mimics the role of the cytosolic domain of a protein tyrosine kinase in this model system.

[2] = biological target: T2, human SHP2-FL L262R (Homo sapiens, UniProt Q06124, L262R); assay: SHP2 allosteric inhibition assay (DiFMUP), L262R
T2 sequence (Q06124 1-593 L262R): T1 sequence (Q06124 1-593 E76K) with K76E, L262R
Method: as §1
as §2, with “Diluted inhibitor (5 μL) was mixed with activated enzyme (25 μl) and incubated for 30 minutes at room temperature.” left out
as §3, §4

[3] = biological target: T3, human SHP2-FL D61G (Homo sapiens, UniProt Q06124, D61G); assay: SHP2 allosteric inhibition assay (DiFMUP), D61G; conditions: for IC50: SHP2 D61G
T3 sequence (Q06124 1-593 D61G): T1 sequence (Q06124 1-593 E76K) with D61G, K76E
Method: as §1
as §2, with “Diluted inhibitor (5 μL) was mixed with activated enzyme (25 μl) and incubated for 30 minutes at room temperature.” left out
as §3, §4

[4] = 0.5 μM NsCs peptide (Activated), read-out: IC50
[5] = No Peptide Control (Non-Activated), read-out: pIC50 (converted)

`Cc1nc(N2CCC3(CC2)CO[C@@H](C)[C@H]3N)c(CO)nc1-c1cccc(Cl)c1Cl` [Compound B] was tested, and the Biochemical sensitivity ([1]; Variant E76K) was “no (Sensitive if IC50 < 2000 nM)”, the Biochemical sensitivity ([2]; Variant L262R) was “yes (Sensitive if IC50 < 2000 nM)” and the Biochemical sensitivity ([3]; Variant D61G) was “yes (Sensitive if IC50 < 2000 nM)”.
In the case of `Nc1nc(N2CCC3(CCC[C@H]3N)CC2)cnc1Sc1ccnc(Cl)c1Cl` [Compound 1], the IC50 [1, 4] is reported as > 10000 nM and 13100 nM and 10400 nM, the IC50 [1, 5] is reported as 53.7 nM and 58.9 nM and 50.1 nM and the IC50 ([2]; IC50 (nM), SHP2 L262R 0.5 μM NsCs peptide (Activated), human SHP2-FL L262R, 0.5 μM NsCs peptide (activated)) is reported as 79.4 nM and 62.2 nM and 69.2 nM and 74.6 nM. For the same compound, the IC50 ([2]; human SHP2-FL L262R alone, no peptide (non-activated), read-out: IC50 (nM), SHP2 L262R No Peptide Control (Non-Activated)) was 2.83 nM and 3.37 nM and 2.75 nM and 3.43 nM, the IC50 ([2]; human SHP2-FL L262R alone, no peptide (non-activated), read-out: pIC50, SHP2 L262R No Peptide Control (Non-Activated) (converted)) was 2.82 nM and 3.39 nM and 2.75 nM and the IC50 ([2]; pIC50, SHP2 L262R 0.5 μM NsCs peptide (Activated), human SHP2-FL L262R, 0.5 μM NsCs peptide (activated)) was 79.4 nM and 61.7 nM and 69.2 nM and 74.1 nM. For the same compound, the IC50 [3, 4] was 185 nM and 219 nM and 198 nM and 191 nM, the IC50 ([3]; 0.5 μM NsCs peptide (Activated), read-out: pIC50 (converted)) was 186 nM and 219 nM and 200 nM and 191 nM and the IC50 ([3]; No Peptide Control (Non-Activated), read-out: IC50) was 1.85 nM and 2.45 nM and 1.6 nM and 1.81 nM. The IC50 [3, 5] was 1.86 nM and 2.45 nM and 1.58 nM and 1.82 nM.

Reference: patent publication US20210154190A1, “SHP2 INHIBITOR COMPOSITIONS AND METHODS FOR TREATING CANCER” (Revolution Medicines, Inc., priority 2018, published 2021)
